{"source": "patent US9345703B2", "about": "“Kappa opioid receptor effectors and uses thereof” (University of Kansas, priority 2011, dated 2016)", "key": {"KOR [1]": {"molecular_target": "T1, KOR (Homo sapiens, UniProt P41145)", "T1 sequence (P41145 whole entry)": "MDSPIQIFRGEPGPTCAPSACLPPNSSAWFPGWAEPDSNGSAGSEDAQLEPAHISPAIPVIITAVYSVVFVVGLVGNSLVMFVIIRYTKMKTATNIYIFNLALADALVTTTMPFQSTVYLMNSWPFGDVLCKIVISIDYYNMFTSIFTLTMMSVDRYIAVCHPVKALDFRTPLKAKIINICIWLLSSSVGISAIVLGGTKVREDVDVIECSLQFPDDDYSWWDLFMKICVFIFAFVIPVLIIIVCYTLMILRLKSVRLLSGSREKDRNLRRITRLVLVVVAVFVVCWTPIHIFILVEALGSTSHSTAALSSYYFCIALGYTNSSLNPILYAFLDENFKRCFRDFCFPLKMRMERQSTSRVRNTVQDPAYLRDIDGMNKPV", "test": "KOR1 DISCOVERX β-Arrestin […] assay, antagonist mode (KOR DRX)", "assay_type": "cell-based", "conditions": "antagonist; average; read-out: Potency, Target KOR DRX", "description": "(§1) In this campaign, two assay platforms were employed to evaluate KOR activity and selectivity: the KOR1 DISCOVERX β-Arrestin […] assay and an imaging based β-arrestin translocation assay for confirmatory and selectivity assays. The KOR1 DISCOVERX β-Arrestin […] assay is a commercial platform for direct measurement of GPCR (G protein-coupled receptor) activation by detection of β-Arrestin binding to the KOR. […] In cells that stably express these fusion proteins, ligand stimulation results in the recruitment of β-Arrestin by the GPCR. This interaction encourages the complementation of the two β-galactosidase fragments resulting in the formation of a functional enzyme that converts substrate in the assay medium to a detectable signal. The imaging based high-content β-arrestin translocation assay is based upon the redistribution of β-Arrestin linked to green fluorescent protein (GFP) to the cell surface and detection (Barak, et al. (1997) J. Biol. Chem. 272:27497-27500).\n(§2) Initially, a portion (approximately 290,000 compounds) of the MLSMR compound collection was tested in the KOR1 DISCOVERX β-arrestin primary kappa opioid (KOP) agonist and antagonist screens (PUBCHEM AID 1777 and 1778, respectively) at a single concentration point (10 μM). […] These compounds were concurrently tested in a β-galactosidase counterscreen assay (PUBCHEM AID 1966) to assess the possibility that these compounds might inhibit the reporting enzyme. […] The KOR:DOR:MOR selectivity of the compounds was determined using the analogous β-arrestin translocation assays for the DOR (PUBCHEM AID 2370 and 2357, for agonists and antagonist, respectively) and the MOR (PUBCHEM AID 2352 and 2420, for agonists and antagonists, respectively)."}, "KOR [2]": {"molecular_target": "T1, KOR", "test": "High content imaging β-arrestin translocation assay, KOR antagonist (KOR HCS)", "assay_type": "cell-based", "conditions": "antagonist; average; read-out: Potency, Target KOR HCS", "description": "as §1, §2"}, "MOR": {"molecular_target": "MOR (Homo sapiens, UniProt P35372)", "sequence (P35372 whole entry)": "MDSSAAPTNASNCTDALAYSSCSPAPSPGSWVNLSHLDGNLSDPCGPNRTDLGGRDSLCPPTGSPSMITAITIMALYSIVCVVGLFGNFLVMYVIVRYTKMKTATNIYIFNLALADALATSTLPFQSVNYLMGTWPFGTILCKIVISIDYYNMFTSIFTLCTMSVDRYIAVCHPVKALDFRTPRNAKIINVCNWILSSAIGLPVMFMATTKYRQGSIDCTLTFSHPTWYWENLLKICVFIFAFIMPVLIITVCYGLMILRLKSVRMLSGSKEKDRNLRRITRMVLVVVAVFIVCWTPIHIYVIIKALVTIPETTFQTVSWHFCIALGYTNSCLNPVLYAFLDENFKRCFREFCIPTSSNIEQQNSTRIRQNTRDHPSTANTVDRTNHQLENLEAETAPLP", "test": "High content imaging β-arrestin translocation assay, MOR antagonist (MOR HCS)", "assay_type": "cell-based", "description": "as §1, §2"}, "DOR": {"molecular_target": "DOR (Homo sapiens, UniProt P41143)", "sequence (P41143 whole entry)": "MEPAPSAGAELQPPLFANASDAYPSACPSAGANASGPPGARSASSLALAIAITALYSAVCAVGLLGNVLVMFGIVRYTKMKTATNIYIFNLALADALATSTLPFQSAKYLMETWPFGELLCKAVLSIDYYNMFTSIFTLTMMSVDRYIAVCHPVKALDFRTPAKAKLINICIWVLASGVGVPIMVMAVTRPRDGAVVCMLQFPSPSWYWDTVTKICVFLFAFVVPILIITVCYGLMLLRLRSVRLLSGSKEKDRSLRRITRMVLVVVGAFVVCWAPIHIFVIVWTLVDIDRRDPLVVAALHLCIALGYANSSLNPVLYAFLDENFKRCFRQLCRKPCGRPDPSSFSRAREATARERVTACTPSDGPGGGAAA", "test": "High content imaging β-arrestin translocation assay, DOR antagonist (DOR HCS)", "assay_type": "cell-based", "description": "as §1, §2"}, "KOP receptor [3]": {"molecular_target": "T2, KOP receptor (Homo sapiens, UniProt P41145)", "T2 sequence (P41145 whole entry)": "as the sequence (P41145 whole entry) above", "test": "35S-GTPγS coupling, inhibition", "assay_type": "biochemical"}, "KOP receptor [4]": {"molecular_target": "T2, KOP receptor", "test": "ERK 1/2 activation, inhibition", "assay_type": "cell-based"}}, "note": "Marks after values point to notes of the source that are not given here.", "data": [{"smiles": "COc1ccc(N2CCN(CCCNC(=O)Cn3c(=O)c4cccn4c4ccccc43)CC2)cc1", "note": "[Compound 1{1}]", "values": [{"measurement": "IC50", "setting": "KOR [1]", "result": 1970, "unit": "nM"}, {"measurement": "IC50", "setting": "KOR [2]", "result": 1310, "unit": "nM"}, {"measurement": "IC50", "setting": "MOR", "result": "> 32000", "unit": "nM"}, {"measurement": "IC50", "setting": "DOR", "result": "> 32000", "unit": "nM"}, {"measurement": "Imax (% NBNI)", "setting": "KOP receptor [3]", "result": "122 ± 5^a % NBNI"}, {"measurement": "IC50", "setting": "KOP receptor [3]; n ≧ 3 curves in duplicate", "result": "95.7 ± 48", "unit": "nM"}, {"measurement": "Imax (% NBNI)", "setting": "KOP receptor [4]", "result": "101 ± 3^ % NBNI"}, {"measurement": "IC50", "setting": "KOP receptor [4]; n ≧ 3 curves, replicates of 6", "result": "65 ± 9.2", "unit": "nM"}]}]}
